Experimental data: patent US20240158348A1, “HERBICIDAL CYCLIC AMIDES N-SUBSTITUTED WITH A HALOALKYLSULFONYLANILIDE GROUP” (FMC Corporation, priority 2021, published 2024)

Assays:
[1] = system: blackgrass (Alopecurus myosuroides); assay: Test C preemergence, blackgrass; format: in vivo; settings: 0 is no effect, 100 is complete control
Description: (§1) Seeds of plant species selected from blackgrass (Alopecurus myosuroides), corn (Zea mays), foxtail, giant (giant foxtail, Setaria faberi), goosegrass (Eleusine indica), kochia (Bassia scoparia), oat, wild (wild oat, Avena fatua), pigweed, palmer (palmer amaranth, Amaranthus palmeri), ragweed (common ragweed, Ambrosia artemisiifolia), ryegrass, Italian (Italian ryegrass, Lolium multiflorum), soybean (Glycine max) and wheat (Triticum aestivum) were planted into a blend of loam soil and sand and treated preemergence with a directed soil spray using test chemicals formulated in a non-phytotoxic solvent mixture which included a surfactant.
(§2) At the same time, plants selected from these crop and weed species and also galium (catchweed bedstraw, Galium aparine) and horseweed (Erigeron canadensis) were planted in pots containing the same blend of loam soil and sand and treated with postemergence applications of test chemicals formulated in the same manner. Plants ranged in height from 2 to 10 cm and were in the one- to two-leaf stage for the postemergence treatment. Treated plants and untreated controls were maintained in a greenhouse for 10 or 12 days, after which time all treated plants were compared to untreated controls and visually evaluated for injury. Plant response ratings, summarized in Table A, are based on a 0 to 100 scale where 0 is no effect and 100 is complete control. A dash (-) response means no test result.

corn (Zea mays) [2] = assay: Test C preemergence, corn; format: in vivo; settings: 0 is no effect, 100 is complete control
Description: as §1, §2

[3] = system: foxtail, giant (giant foxtail, Setaria faberi); assay: Test C preemergence, giant foxtail; format: in vivo; settings: 0 is no effect, 100 is complete control
Description: as §1, §2

[4] = system: goosegrass (Eleusine indica); assay: Test C preemergence, goosegrass; format: in vivo; settings: 0 is no effect, 100 is complete control
Description: as §1, §2

kochia (Bassia scoparia) [5] = assay: Test C preemergence, kochia; format: in vivo; settings: 0 is no effect, 100 is complete control
Description: as §1, §2

[6] = system: oat, wild (wild oat, Avena fatua); assay: Test C preemergence, wild oat; format: in vivo; settings: 0 is no effect, 100 is complete control
Description: as §1, §2

[7] = system: pigweed, palmer (palmer amaranth, Amaranthus palmeri); assay: Test C preemergence, palmer amaranth; format: in vivo; settings: 0 is no effect, 100 is complete control
Description: as §1, §2

[8] = system: ragweed (common ragweed, Ambrosia artemisiifolia); assay: Test C preemergence, ragweed; format: in vivo; settings: 0 is no effect, 100 is complete control
Description: as §1, §2

[9] = system: ryegrass, Italian (Italian ryegrass, Lolium multiflorum); assay: Test C preemergence, Italian ryegrass; format: in vivo; settings: 0 is no effect, 100 is complete control
Description: as §1, §2

soybean (Glycine max) [10] = assay: Test C preemergence, soybean; format: in vivo; settings: 0 is no effect, 100 is complete control
Description: as §1, §2

[11] = system: wheat (Triticum aestivum); assay: Test C preemergence, wheat; format: in vivo; settings: 0 is no effect, 100 is complete control
Description: as §1, §2

[12] = system: blackgrass (Alopecurus myosuroides); assay: Test C postemergence, blackgrass; format: in vivo; settings: 31 g ai/ha Postemergence; visual injury, 0 to 100 scale (0 no effect, 100 complete control)
Description: as §1, §2

corn (Zea mays) [13] = assay: Test C postemergence, corn; format: in vivo
Description: as §1, §2

[14] = system: foxtail, giant (giant foxtail, Setaria faberi); assay: Test C postemergence, giant foxtail; format: in vivo
Description: as §1, §2

[15] = system: goosegrass (Eleusine indica); assay: Test C postemergence, goosegrass; format: in vivo
Description: as §1, §2

kochia (Bassia scoparia) [16] = assay: Test C postemergence, kochia; format: in vivo
Description: as §1, §2

[17] = system: pigweed, palmer (palmer amaranth, Amaranthus palmeri); assay: Test C postemergence, palmer amaranth; format: in vivo
Description: as §1, §2

[18] = system: ragweed (common ragweed, Ambrosia artemisiifolia); assay: Test C postemergence, ragweed; format: in vivo
Description: as §1, §2

[19] = system: ryegrass, Italian (Italian ryegrass, Lolium multiflorum); assay: Test C postemergence, Italian ryegrass; format: in vivo
Description: as §1, §2

soybean (Glycine max) [20] = assay: Test C postemergence, soybean; format: in vivo
Description: as §1, §2

[21] = system: wheat (Triticum aestivum); assay: Test C postemergence, wheat; format: in vivo
Description: as §1, §2

[22] = system: galium (catchweed bedstraw, Galium aparine); assay: Test C postemergence, galium; format: in vivo
Description: as §1, §2

[23] = system: horseweed (Erigeron canadensis); assay: Test C postemergence, horseweed; format: in vivo
Description: as §1, §2

[24] = system: barnyardgrass (Echinochloa crusgalli); assay: Test D flooded paddy test, barnyardgrass; format: in vivo; design: key: 0 = no effect, 100 = complete control; settings: 250 g ai/ha, Flood; applied to paddy water at 2-leaf stage; visual rating after 13 days; scale 0 (no effect) to 100 (complete control)
Description: (§3) Plant species in the flooded paddy test selected from barnyardgrass (Echinochloa crusgalli), ducksalad (Heteranthera limosa), rice (Oryza sativa), and sedge, umbrella (small-flower umbrella sedge, Cyperus difformis) were grown to the 2-leaf stage for testing. At time of treatment, test pots were flooded to 3 cm above the soil surface, treated by application of test compounds directly to the paddy water, and then maintained at that water depth for the duration of the test. Treated plants and controls were maintained in a greenhouse for 13 days, after which time all species were compared to controls and visually evaluated. Plant response ratings, summarized in Table B, are based on a scale of 0 to 100 where 0 is no effect and 100 is complete control. A dash (-) response means no test result.

[25] = system: ducksalad (Heteranthera limosa); assay: Test D flooded paddy test, ducksalad; format: in vivo; design: key: 0 = no effect, 100 = complete control; settings: 250 g ai/ha, Flood; applied to paddy water at 2-leaf stage; visual rating after 13 days; scale 0 (no effect) to 100 (complete control)
Description: as §3

rice (Oryza sativa) = assay: Test D flooded paddy test, rice; format: in vivo; design: key: 0 = no effect, 100 = complete control; settings: 250 g ai/ha, Flood; applied to paddy water at 2-leaf stage; visual rating after 13 days; scale 0 (no effect) to 100 (complete control)
Description: as §3

[26] = system: sedge, umbrella (small-flower umbrella sedge, Cyperus difformis); assay: Test D flooded paddy test, umbrella sedge; format: in vivo; design: key: 0 = no effect, 100 = complete control; settings: 250 g ai/ha, Flood; applied to paddy water at 2-leaf stage; visual rating after 13 days; scale 0 (no effect) to 100 (complete control)
Description: as §3

[27] = system: blackgrass (Alopecurus myosuroides); assay: Test C postemergence, blackgrass; format: in vivo; settings: 125 g ai/ha Postemergence; 0 is no effect, 100 is complete control
[28] = 31 g ai/ha Postemergence, visual injury, 0 to 100 scale (0 no effect, 100 complete control)
[29] = 125 g ai/ha Postemergence, 0 is no effect, 100 is complete control

SMILES: C=CCO/N=C1\CCN(c2cc(NS(=O)(=O)C(F)(F)F)c(C)cc2C)C1=O [Compound 11]
- Plant response rating (0 to 100 scale), Blackgrass ([1]; 31 g ai/ha Preemergence): 60
- Plant response rating (0 to 100 scale), Blackgrass ([1]; 125 g ai/ha Preemergence): 100
- Plant response rating (0 to 100 scale), Corn (corn (Zea mays) [2]; 31 g ai/ha Preemergence): 50
- Plant response rating (0 to 100 scale), Corn (corn (Zea mays) [2]; 125 g ai/ha Preemergence): 100
- Plant response rating (0 to 100 scale), Foxtail, Giant ([3]; 31 g ai/ha Preemergence): 100
- Plant response rating (0 to 100 scale), Foxtail, Giant ([3]; 125 g ai/ha Preemergence): 100
- Plant response rating (0 to 100 scale), Goosegrass ([4]; 31 g ai/ha Preemergence): 100
- Plant response rating (0 to 100 scale), Goosegrass ([4]; 125 g ai/ha Preemergence): 100
- Plant response rating (0 to 100 scale), Kochia (kochia (Bassia scoparia) [5]; 31 g ai/ha Preemergence): 80
- Plant response rating (0 to 100 scale), Kochia (kochia (Bassia scoparia) [5]; 125 g ai/ha Preemergence): 100
- Plant response rating (0 to 100 scale), Oat, Wild ([6]; 31 g ai/ha Preemergence): 30
- Plant response rating (0 to 100 scale), Oat, Wild ([6]; 125 g ai/ha Preemergence): 100
- Plant response rating (0 to 100 scale), Pigweed, Palmer ([7]; 31 g ai/ha Preemergence): 70
- Plant response rating (0 to 100 scale), Pigweed, Palmer ([7]; 125 g ai/ha Preemergence): 100
- Plant response rating (0 to 100 scale), Ragweed ([8]; 31 g ai/ha Preemergence): 80
- Plant response rating (0 to 100 scale), Ragweed ([8]; 125 g ai/ha Preemergence): 90
- Plant response rating (0 to 100 scale), Ryegrass, Italian ([9]; 31 g ai/ha Preemergence): 40
- Plant response rating (0 to 100 scale), Ryegrass, Italian ([9]; 125 g ai/ha Preemergence): 90
- Plant response rating (0 to 100 scale), Soybean (soybean (Glycine max) [10]; 31 g ai/ha Preemergence): 50
- Plant response rating (0 to 100 scale), Soybean (soybean (Glycine max) [10]; 125 g ai/ha Preemergence): 90
- Plant response rating (0 to 100 scale), Wheat ([11]; 31 g ai/ha Preemergence): 90
- Plant response rating (0 to 100 scale), Wheat ([11]; 125 g ai/ha Preemergence): 100
- Blackgrass plant response rating [12]: 40
- Corn plant response rating (corn (Zea mays) [13]; [28]): 90
- Plant response rating (0 to 100 scale), Corn (corn (Zea mays) [13]; [29]): 100
- Foxtail, Giant plant response rating [14, 28]: 60
- Plant response rating (0 to 100 scale), Foxtail, Giant [14, 29]: 90
- Goosegrass plant response rating [15, 28]: 90
- Plant response rating (0 to 100 scale), Goosegrass [15, 29]: 100
- Kochia plant response rating (kochia (Bassia scoparia) [16]; [28]): 40
- Plant response rating (0 to 100 scale), Kochia (kochia (Bassia scoparia) [16]; [29]): 90
- Pigweed, Palmer plant response rating [17, 28]: 40
- Plant response rating (0 to 100 scale), Pigweed, Palmer [17, 29]: 90
- Ragweed plant response rating [18, 28]: 60
- Plant response rating (0 to 100 scale), Ragweed [18, 29]: 80
- Ryegrass, Italian plant response rating [19, 28]: 0
- Plant response rating (0 to 100 scale), Ryegrass, Italian [19, 29]: 30
- Soybean plant response rating (soybean (Glycine max) [20]; [28]): 100
- Plant response rating (0 to 100 scale), Soybean (soybean (Glycine max) [20]; [29]): 100
- Wheat plant response rating [21, 28]: 80
- Plant response rating (0 to 100 scale), Wheat [21, 29]: 90
- Galium plant response rating [22, 28]: 80
- Plant response rating (0 to 100 scale), Galium [22, 29]: 100
- Horseweed plant response rating [23, 28]: 20
- Plant response rating (0 to 100 scale), Horseweed [23, 29]: 70
- Plant response rating, Barnyardgrass [24]: 25
- Plant response rating, Ducksalad [25]: 100
- Plant response rating, Rice (rice (Oryza sativa)): 45
- Plant response rating, Sedge, Umbrella [26]: 100
- melting point: 184 to 187 °C
- Plant response rating (0 to 100 scale), Blackgrass [27]: 90
